Measured values from paper PMC8292346, “Dysfunction of the key ferroptosis-surveilling systems hypersensitizes mice to tubular necrosis during acute kidney injury” (Nature Communications, 2021).
Where “and” joins values, the source holds several entries; their conditions need not be identical. Identical values can stand only once. Like-named read-outs stand apart in the source and are kept apart here.

Tests used:
NIH3T3 cells [1] = assay: Ferroptosis inducers (FINs)/ferroptocide, 7-AAD/annexin V flow cytometry; type: cell-based, murine; details: NIH3T3, 5 µM erastin 24 h, alone (DMSO) or with Fer-1 1 µM, Nec-1s 30 µM, Nec-1f 30 µM
[2] = test system: Mouse cortical tubule cells (MCT); assay: FINs/ferroptocide, 7-AAD/annexin V flow cytometry; type: cell-based; details: MCT, alone (DMSO) or with Fer-1 1 µM, Nec-1s 30 µM, Nec-1f 30 µM
Experimental: (§1) To induce necroptosis in a human cell line, HT29 cells were stimulated at the indicated time points with 20 ng/ml human TNFα (Biolegend), 1 μM SMAC-mimetics (Birinapant, Chemietek), and 20 μM zVAD-fmk (Selleckchem, herein referred to as zVAD). For the induction of necroptosis in NIH3T3 cells, cells were incubated with 20 ng/ml TNF-α and 20 μM zVAD for indicated time points. […] Cells were seeded in six-well plates or petri dishes. […] After indicated time points, cells were collected and prepared for flow cytometry, immunoblotting, and/or LDH release assays.
(§2) Cells were harvested and the pellets were washed twice in PBS and stained with 5 μl of 7-AAD (BD Biosciences) and 5 μl of annexin-V-FITC (BD Biosciences) added to 100 μl annexin-V binding buffer (BD Biosciences). After 15 min, cells were recorded on the LSRII with the FACS Diva 6.1.1 software (BD Biosciences) and subsequently analyzed with the FlowJo v10 software (Tree Star).

HT1080 cells [3] = assay: CellTiter-Glo luminescent cell viability assay (ATP), dose-response; type: cell-based, human
Experimental: Cells were plated in an opaque-walled 96-well plate and treatment with ferroptosis inducers and/or ferroptosis inhibitors was initiated 24 h later. […] Here, the reaction agent was directly added to the wells, mixed on an orbital shaker for 2 min, and then incubated at room temperature for 10 min. The luminescence was detected using a Promega GloMax® instrument.

CD10-135 cells = assay: FINs/ferroptocide, LDH release assay; type: cell-based, human; parameters: LDH release: unit not given here; details: Nec-1f 30 µM
HT1080 cells [4] = assay: Ferroptosis inducers (FINs)/ferroptocide, 7-AAD/annexin V flow cytometry; type: cell-based, human
[5] = test system: primary murine tubular cells; assay: RSL3-induced LDH release of primary kidney tubular cells; type: cell-based; details: primary kidney tubular cells, RSL3 14 h, alone (DMSO) or with Fer-1 or Nec-1f 30 µM
Experimental: The LDH release of cells or of freshly isolated kidney tubules was measured according to manufacturers’ instructions at indicated time points. In brief, an aliquot of the supernatant was taken and Lysis Solution was added for 45 min to induce maximal LDH release before another aliquot of the supernatant was taken. Subsequently, the supernatants were incubated with CytoTox 96® Reagent for 15 min protected from light at room temperature before adding Stop Solution. Absorbance was measured at 490 nm.
Generation, cell culture, and induction of cell death in primary murine tubular cells. Murine tubular cells were generated by outgrowth from isolated renal tubules (see above). Primary murine tubules were placed in six-well plates containing Dulbecco’s Modified Eagle Medium F-12 Nutrient Mixture without phenol red (DMEM/F12, Thermo Fisher), supplemented with 0.01 mg/ml recombinant human insulin, 5.5 μg/ml human transferrin, 0.005 μg/ml Na2SeO3 (ITS without linoleic acid, Sigma Aldrich), 50 nM hydrocortisone, 100 U/ml penicillin, and 100 μg/ml streptomycin (Pen/Strep, Thermo Fisher). After two days, the outgrown primary murine tubular cells were washed with PBS and a fresh medium was added. When the number of primary murine tubular cells reached approximately 50% confluence, the cells were removed from the six-well plates using Trypsin-EDTA (Thermo Fisher), washed with medium and a Ficoll Paque Plus (Sigma Aldrich) gradient was performed to remove any dead cells, and debris from the murine renal tubules. Cells were washed twice with PBS and seeded in six-well plates with medium. Once the number of grown cells reached approximately 50% confluence, they were washed with PBS and treated with type 2 FIN: RSL3 (also see Supplementary Table 2 for details). After 14 h, medium and cells were collected and prepared for LDH release assay. Images of the treated primary murine tubular cells were obtained using a 20×/0.30 PH1 objective on a Leica DMi1 microscope.

[6] = both, microsomes, 2 µM, pH 7.4
NIH3T3 cells [7] = assay: Ferroptosis inducers (FINs)/ferroptocide, 7-AAD/annexin V flow cytometry; type: cell-based, murine; details: NIH3T3, 10 µM FIN56 24 h, alone (DMSO) or with Fer-1 1 µM, Nec-1s 30 µM, Nec-1f 30 µM
Experimental: as §1, §2

[8] = Stability in human plasma; type: in vitro ADME; details: 1 µM, 37 °C
Experimental: Plasma stability is defined as the percentage of parent compound remaining in plasma over the time. Here, incubations were carried out in 5 aliquots of 70 µl each (one for each time point), in duplicates. […] The percentage of the test compounds remaining after incubation in plasma and their half-lives (T1/2) was calculated.

CCOc1ccccc1-n1c(C(C)N2CCN(C(=O)COc3ccc(Cl)cc3)CC2)nc2ccccc2c1=O (stereo not drawn) [erastin]
double-negative events (7-AAD/annexin V) (NIH3T3 cells [1]): 10.4% and 3.36% and 6.36% and 2.66%
double-negative events (7-AAD/annexin V) ([2]; 5 µM erastin 24 h): 51.9% and 85.2% and 80.4% and 71%
ATP luminescence (CellTiterGlo) (HT1080 cells [3]; HT1080, inducer at 0.01 µM): 100%
ATP luminescence (CellTiterGlo) (HT1080 cells [3]; HT1080, inducer at 0.1 µM): 100%
ATP luminescence (CellTiterGlo) (HT1080 cells [3]; HT1080, inducer at 0.5 µM): 90.0281% and 100%
ATP luminescence (CellTiterGlo) (HT1080 cells [3]; HT1080, inducer at 1 µM): 57.4401% and 100%
ATP luminescence (CellTiterGlo) (HT1080 cells [3]; HT1080, inducer at 100 µM): 3.949%
ATP luminescence (CellTiterGlo) (HT1080 cells [3]; HT1080, inducer at 200 µM): 12.3673% and 20.98%
LDH release (CD10-135 cells; CD10-135, erastin alone (FIN) or with Fer-1, Nec-1s): 92.68 and 85.398 and 91.0128

COC(=O)c1ccc([C@@H]2c3[nH]c4ccccc4c3C[C@@H](C(=O)OC)N2C(=O)CCl)cc1 [RSL3]
double-negative events (7-AAD/annexin V) (HT1080 cells [4]; HT1080, 1.13 µM RSL3 6 h, alone (DMSO) or with Fer-1 1 µM, Nec-1s 30 µM, Nec-1f 30 µM): 61% and 47.8% and 51.8% and 65.7%
ATP luminescence (CellTiterGlo) (HT1080 cells [3]; HT1080, inducer at 0.01 µM): 100%
ATP luminescence (CellTiterGlo) (HT1080 cells [3]; HT1080, inducer at 0.1 µM): 100%
ATP luminescence (CellTiterGlo) (HT1080 cells [3]; HT1080, inducer at 0.113 µM): 100%
ATP luminescence (CellTiterGlo) (HT1080 cells [3]; HT1080, inducer at 0.5 µM): 30.56% and 28.07% and 28.8%
ATP luminescence (CellTiterGlo) (HT1080 cells [3]; HT1080, inducer at 1 µM): 18.36% and 19.43% and 14.93%
ATP luminescence (CellTiterGlo) (HT1080 cells [3]; HT1080, inducer at 1.13 µM): 55.71% and 77.56% and 64%
ATP luminescence (CellTiterGlo) (HT1080 cells [3]; HT1080, inducer at 5 µM): 11.16% and 17.99% and 22.07%
LDH release (CD10-135 cells; CD10-135, RSL3 alone (FIN) or with Fer-1, Nec-1s): 53.16 and 45.5353
LDH release [5]: 91.18% and 51.15% and 48.12% and 50.73% and 54.44%

CC1(CCO)CC2(CCC(C(C)(C)C)CC2)OO1 (stereo not drawn) [FINO2]
ATP luminescence (CellTiterGlo) (HT1080 cells [3]; HT1080, inducer at 0.01 µM): 100%
ATP luminescence (CellTiterGlo) (HT1080 cells [3]; HT1080, inducer at 0.1 µM): 100%
ATP luminescence (CellTiterGlo) (HT1080 cells [3]; HT1080, inducer at 0.5 µM): 100%
ATP luminescence (CellTiterGlo) (HT1080 cells [3]; HT1080, inducer at 1 µM): 100% and 53.72%
ATP luminescence (CellTiterGlo) (HT1080 cells [3]; HT1080, inducer at 50 µM): 0.7403% and 0.06%
ATP luminescence (CellTiterGlo) (HT1080 cells [3]; HT1080, inducer at 100 µM): 0% and 0.26% and 0.2% and 0.08%
ATP luminescence (CellTiterGlo) (HT1080 cells [3]; HT1080, inducer at 200 µM): 0% and 0.3058% and 0.04%
LDH release (CD10-135 cells; CD10-135, FINO2 alone (FIN) or with Fer-1, Nec-1s): 73.83 and 38.4304 and 67.2452

O=C(O)Cc1ccccc1Nc1c(Cl)cccc1Cl [diclofenac, reference compound]
Human microsomal stability, parent compound remaining ([6]; 0 h): 100%
Human microsomal stability, parent compound remaining ([6]; 7 min): 62%
Human microsomal stability, parent compound remaining ([6]; 0.25 h): 26%
Human microsomal stability, parent compound remaining ([6]; 25 min): 6%
Human microsomal stability, parent compound remaining ([6]; 40 min): 2%

O=S(=O)(NC1CCCCC1)c1ccc2c(c1)C(=NO)c1cc(S(=O)(=O)NC3CCCCC3)ccc1-2 [FIN56]
double-negative events (7-AAD/annexin V) (NIH3T3 cells [7]): 87.6% and 95% and 90.3%
double-negative events (7-AAD/annexin V) ([2]; 10 µM FIN56 24 h): 96.5% and 90.7% and 88.5%
Induction of ferroptosis (HT1080 cells [4]; HT1080): does not effectively drive ferroptosis
double-negative events (7-AAD/annexin V) (HT1080 cells [4]; HT1080, 10 µM FIN56 24 h, alone (DMSO) or with Fer-1 1 µM, Nec-1s 30 µM, Nec-1f 30 µM): 85.5% and 85.1% and 86%
double-negative events (7-AAD/annexin V) (HT1080 cells [4]; HT1080, FIN56 10 µM, 24 h): 95% and 96% and 94%
double-negative events (7-AAD/annexin V) (HT1080 cells [4]; HT1080, FIN56 10 µM, 48 h): 92% and 90% and 74%
double-negative events (7-AAD/annexin V) (HT1080 cells [4]; HT1080, FIN56 20 µM, 24 h): 92% and 93%
double-negative events (7-AAD/annexin V) (HT1080 cells [4]; HT1080, FIN56 20 µM, 48 h): 93% and 92% and 89% and 71%
double-negative events (7-AAD/annexin V) (HT1080 cells [4]; HT1080, FIN56 50 µM, 24 h): 85% and 92% and 93%
double-negative events (7-AAD/annexin V) (HT1080 cells [4]; HT1080, FIN56 50 µM, 48 h): 83% and 87% and 78% and 65%
double-negative events (7-AAD/annexin V) (HT1080 cells [4]; HT1080, FIN56 100 µM, 24 h): 85% and 86% and 80%
ATP luminescence (CellTiterGlo) (HT1080 cells [3]; HT1080, inducer at 0.01 µM): 100%
ATP luminescence (CellTiterGlo) (HT1080 cells [3]; HT1080, inducer at 0.1 µM): 100%
ATP luminescence (CellTiterGlo) (HT1080 cells [3]; HT1080, inducer at 0.5 µM): 100%
ATP luminescence (CellTiterGlo) (HT1080 cells [3]; HT1080, inducer at 1 µM): 100%
LDH release (CD10-135 cells; CD10-135, FIN56 alone (FIN) or with Fer-1, Nec-1s): 81.45 and 58.7091 and 60.5407

C[C@@H]1CC[C@@]23C[C@H](O)C(=O)[C@@]2(O)[C@]1(C)[C@H](OC(=O)CCl)C[C@@H](C1=CCn2c(=O)n(-c4ccccc4)c(=O)n2C1)[C@@H]3C [ferroptocide]
ATP luminescence (CellTiterGlo) (HT1080 cells [3]; HT1080, inducer at 0.01 µM): 100%
ATP luminescence (CellTiterGlo) (HT1080 cells [3]; HT1080, inducer at 0.1 µM): 100%
ATP luminescence (CellTiterGlo) (HT1080 cells [3]; HT1080, inducer at 0.5 µM): 67.8646% and 100%
ATP luminescence (CellTiterGlo) (HT1080 cells [3]; HT1080, inducer at 50 µM): -0.02481% and 0.12%
ATP luminescence (CellTiterGlo) (HT1080 cells [3]; HT1080, inducer at 100 µM): 0% and 0.4% and -1.103% and 0.1%
ATP luminescence (CellTiterGlo) (HT1080 cells [3]; HT1080, inducer at 200 µM): 0% and -0.7765% and 0.13%
LDH release (CD10-135 cells; CD10-135, ferroptocide alone (FIN) or with Fer-1, Nec-1s): 93.9 and 97.7396

CC(C)[N+](C)(CCOC(=O)C1c2ccccc2Oc2ccccc21)C(C)C [propantheline, reference compound]
Human plasma stability, parent compound remaining ([8]; 0 min): 100%
Human plasma stability, parent compound remaining ([8]; 20 min): 65%
Human plasma stability, parent compound remaining ([8]; 40 min): 31%
Human plasma stability, parent compound remaining ([8]; 60 min): 16%
Human plasma stability, parent compound remaining ([8]; 120 min): 2%
